In brackets after ≈: the same amount, converted by molar mass.

For orientation: solubility (kinetic) means solubility judged after dilution from a stock solution rather than from solid.

For the series the following is noted: buffer; pH 7.4; 200.0 µM.
In the case of `CCOC(=O)c1sc(NC(=O)c2ccccc2OCC)nc1C`, the kinetic solubility was under 0.4 µg/mL.
With `CC(OC(=O)C1CC1)C(=O)Nc1cccc(S(=O)(=O)N2CCOCC2)c1` (stereo not drawn) the figure was over 57.4 µg/mL; with `Cc1ccc(C(=O)NC(=S)N2CCCC2)cc1`, over 37.3 µg/mL.
Consider `COc1ccc(CCNC(=O)c2ccco2)cc1OC`, for which the solubility (kinetic) turned out to be 40.8 µg/mL (≈ 148 µM).
Regarding `CCOC(=O)CNC(=S)N(Cc1ccccc1)Cc1cccs1`, the kinetic solubility was 19.8 µg/mL (≈ 56.8 µM).
`Nc1nc(OCc2ccccc2)c2[nH]cnc2n1` yielded a solubility (kinetic) of 35.9 µg/mL (≈ 149 µM).
As for `Cc1ccc(S(=O)(=O)N2CCOCC2)cc1C(=O)NC(C)CCc1ccccc1` (stereo not drawn), the figure is 25.1 µg/mL (≈ 60.3 µM); as for `CC(=O)NNC(=O)c1[nH]c2ccc(Br)cc2c1-c1ccccc1`, over 55.8 µg/mL.
With `Cc1nc(NC(=O)c2c(-c3ccccc3Cl)noc2C)sc1C` the figure was 13 µg/mL (≈ 37.4 µM).
As for `Cc1cc(C)n2nc(SCc3ccc(C#N)cc3)nc2n1`, the figure is over 44.3 µg/mL.
`CN(C)c1nc(=S)nc(NCc2ccccc2)[nH]1` yielded a kinetic solubility of over 39.2 µg/mL.
In the case of `COc1ccc2c(c1OC)C(=O)N(c1cccc(/C=C/C(=O)O)c1)C2`, the solubility (kinetic) was over 50.9 µg/mL.
Take `COc1ccccc1OCCC(=O)NCc1ccc2c(c1)OCO2`: the solubility (kinetic) turned out to be 45.1 µg/mL (≈ 137 µM).
For `O=C(c1ccco1)N1CCN(S(=O)(=O)c2cc(Cl)ccc2Cl)CC1`, the kinetic solubility worked out at 18.1 µg/mL (≈ 46.5 µM).
Compound `CC(C)C(OC(=O)/C=C/c1ccc2c(c1)OCO2)C(=O)NC(N)=O` (stereo not drawn) registered a kinetic solubility of 6.6 µg/mL (≈ 19.7 µM).
As for `Cc1ccc(S(=O)(=O)NC(C)(C)CSc2ncccn2)cc1`, the figure is over 50.6 µg/mL; as for `Cc1nnc(SCc2nnc(-c3cccs3)o2)n1C`, over 44 µg/mL.
`O=C1CN(C(=O)COC(=O)/C=C/c2ccc(F)cc2)c2ccccc2N1` showed a solubility (kinetic) of 4.6 µg/mL (≈ 13 µM).
As for `O=C1NC(=O)C(Cc2c[nH]c3ccccc23)N1` (stereo not drawn), the kinetic solubility was over 34.4 µg/mL.
As for `COC(=O)c1ccc(COc2ccc(/C=N/O)cc2OC)o1`, the figure is over 45.8 µg/mL.
With `COc1ccc(CCNC(=O)C(=O)NCc2ccccn2)cc1` the figure was over 47 µg/mL.
As for `O=C(O)c1ccccc1NC(=O)c1ccccc1-c1ccccc1C(=O)O`, the figure is over 54.2 µg/mL.
Turning to `CCN(CC(=O)Nc1cc(Cl)ccc1C)C(=O)C1CC1`, the solubility (kinetic) was over 44.2 µg/mL.
Turning to `CN(C)c1ccc(C(=O)OCC(=O)NCCC2=CCCCC2)cc1`, the solubility (kinetic) stood at 4.7 µg/mL (≈ 14.2 µM).
With `O=C(Nc1ccc(S(=O)(=O)N2CCCC2)cc1)C1CCCCC1` the figure was 13.7 µg/mL (≈ 40.7 µM); with `COc1cccc(CNC2CCCCCCC2)c1OC`, 31.6 µg/mL (≈ 114 µM); with `O=C(CN1C(=O)C2CCCCC2C1=O)OCC(=O)c1ccc(F)cc1` (stereo not drawn), 49.5 µg/mL (≈ 143 µM).
With `CC1CC(C)CN(c2ccc(NS(=O)(=O)c3ccccc3)cc2C(=O)O)C1` (stereo not drawn) the figure was 57.2 µg/mL (≈ 147 µM).
As for `CC1CCCN(C(=O)C2CC(=O)N(c3ccc(Cl)cc3)C2)C1` (stereo not drawn), the figure is over 48.1 µg/mL; as for `NC(=O)c1ccccc1OCc1nc2ccccc2s1`, 19.5 µg/mL (≈ 68.6 µM); as for `CCOC(=O)/C(C#N)=C1/C=C(C)c2ccccc2N1`, 0.4 µg/mL (≈ 1.57 µM).
In turn, `CCCN1C(=O)c2ccc(C(=O)Nc3cc(C)ccc3O)cc2C1=O` showed a solubility (kinetic) of 0.9 µg/mL (≈ 2.66 µM).
With `COc1ccc(C2NC(=O)CCC2[N+](=O)[O-])cc1` (stereo not drawn) the figure was over 37.5 µg/mL; with `CCCCN(C(=O)c1cnccn1)c1c(N)n(CCC)c(=O)[nH]c1=O`, 46.9 µg/mL (≈ 135 µM); with `CNCc1sccc1C.Cl`, over 26.7 µg/mL.
As for `CC1(C)C2CCC1(CS(=O)(=O)NC1CCCC1)C(=O)C2` (stereo not drawn), the figure is over 44.9 µg/mL.
With `Cc1cc(C(=O)COC(=O)c2ccc(NC(=O)CC#N)cc2)c(C)n1-c1ccc(OC(F)F)cc1` the figure was 1.7 µg/mL (≈ 3.53 µM).
With `N#CC1=C(N)Oc2c(ccc3cccnc23)C1c1ccncc1` (stereo not drawn), the kinetic solubility came to 40.8 µg/mL (≈ 136 µM).
Take `Cc1ccc(C)c(NC(=O)N2CCCCCC2)c1`: the solubility (kinetic) is over 37 µg/mL.
`O=C(COC(=O)c1ccc(Cl)nc1)NCCc1ccccc1` showed a kinetic solubility of 45.5 µg/mL (≈ 143 µM).
As for `O=C(O)c1ccc(C(=O)Nc2cccc3ccccc23)c(C(=O)O)c1`, the figure is over 50.3 µg/mL; as for `O=C1Nc2cc3c(cc2C1=O)sc1ccccc13`, 3.1 µg/mL (≈ 12.2 µM); as for `COc1ccc(S(=O)(=O)N2CCOc3ccccc32)cc1`, 17.6 µg/mL (≈ 57.6 µM).
The compound `CC1CC(C)(C)NC(=S)N1CCC(=O)N1c2ccccc2CC1C` (stereo not drawn) returned a kinetic solubility of 5.3 µg/mL (≈ 15.3 µM).
As for `Cc1ccccc1-c1nc(CN2CCSCC2)c(C)o1`, the figure is 26.1 µg/mL (≈ 90.5 µM).
With `COc1ccc(-c2ccc3ccccc3n2)cc1` the figure was under 0.5 µg/mL; with `CSc1ncc(C(=O)Nc2ccc(Cl)cc2)c(C)n1`, 12.7 µg/mL (≈ 43.2 µM).
With `CCOC(=O)N1CCN(C(=O)c2ccc(OCC)cc2)CC1` the figure was over 46 µg/mL.
`CC12CN3CC(C)(CN(C1)C3c1ccccc1F)C2` (stereo not drawn) came in with a solubility (kinetic) of 34.3 µg/mL (≈ 132 µM).
`CCc1ccc(N2CN(Cc3cccnc3)CNC2=S)cc1` showed a solubility (kinetic) of over 46.9 µg/mL.
Compound `O=C(Cn1cc([N+](=O)[O-])cn1)NC1CCCCCC1` gave a solubility (kinetic) of over 39.9 µg/mL.
`COCCNC(=O)C(OC(=O)C1=Cc2ccccc2OC1)C(C)C` (stereo not drawn) gave a solubility (kinetic) of over 50 µg/mL.
`COc1ccc(CNC(=S)Nc2cccc(Cl)c2)cc1` displayed a kinetic solubility of 3 µg/mL (≈ 9.78 µM).
Turning to `COc1ccc2oc(=O)c(C(=O)NCc3ccco3)cc2c1`, the kinetic solubility was 4.8 µg/mL (≈ 16 µM).
`NC(=O)c1c(NC(=O)c2ccccc2Cl)sc2c1CCC2` registered a kinetic solubility of 0.7 µg/mL (≈ 2.18 µM).
With `Cc1ccc(F)cc1NC(=O)C1C2CCC(O2)C1C(=O)O` (stereo not drawn) the figure was over 44 µg/mL.
`Cc1cc(C)c(NC(=O)CN2CCCCCC2)c(C)c1` displayed a kinetic solubility of over 41.2 µg/mL.
With `Cc1nc(SCC(=O)Nc2ccc3[nH]c(=O)[nH]c3c2)nc(C)c1C` the figure was 15 µg/mL (≈ 43.7 µM).
With `O=C(C[n+]1ccccc1)Nc1ccccc1` the figure was 26.3 µg/mL.
As for `COc1ccc(C(=O)Nc2cccc(S(=O)(=O)NC3=NCCC3)c2)cc1OC`, the figure is 40.4 µg/mL (≈ 100 µM); as for `Cc1cc(C)cc(NC(=O)Oc2ccccc2N2CCCCC2)c1`, 10.1 µg/mL (≈ 31.1 µM); as for `COc1ccc(CCNC(=O)COC(=O)C2CC2)cc1OC`, over 46.1 µg/mL.
On to `CCN(CC)CCNc1oc(-c2ccccc2)nc1S(=O)(=O)c1ccccc1`, for which the kinetic solubility is over 59.9 µg/mL.
Take `c1ccc2c(CN3CCOCC3)c[nH]c2c1`: the solubility (kinetic) was over 32.4 µg/mL.
As for `O=C(CN1C(=O)NC2(CCCCC2)C1=O)Nc1ccc(N2CCCCC2)cc1`, the figure is 10.9 µg/mL (≈ 28.3 µM).
With `Cc1c(-c2ccccc2)[n+](=O)c2c(n1[O-])CCCC2` the figure was over 38.4 µg/mL; with `O=C(COc1ccc(Cl)cc1Cl)NC(=O)c1ccccc1`, under 0.7 µg/mL; with `CC(C)(C)S(=O)(=O)c1cnc(-c2cnccn2)nc1N`, over 44 µg/mL.
Take `CC(C)CNC(C)C(=O)Nc1ccc(S(N)(=O)=O)cc1` (stereo not drawn): the kinetic solubility is over 44.9 µg/mL.
Compound `CC1CC(C)CN(C(=O)CCCNC(=O)c2ccc(Cl)cc2)C1` (stereo not drawn) came in with a solubility (kinetic) of over 50.5 µg/mL.
As for `CC(=O)C(CC(=O)N1CCCC1)C(=O)Nc1ccc(Cl)cc1` (stereo not drawn), the figure is over 48.4 µg/mL; as for `CCc1noc(C)c1C(=O)Nc1ccc(F)c(F)c1F`, over 42.6 µg/mL.
Consider `COc1ccc(Cl)cc1C(=O)Nc1ccncc1`, for which the solubility (kinetic) was over 39.4 µg/mL.
Turning to `CC(=O)Nc1ccc(N2C(=O)CSC2c2ccccc2)cc1` (stereo not drawn), the kinetic solubility is over 46.9 µg/mL.
As for `O=C(Nc1ccc2c(c1)OCCO2)c1ccc(Cl)cc1Cl`, the figure is 3.5 µg/mL (≈ 10.8 µM).
As for `COC(=O)CN(C#N)c1nc(N(C)C)nc(N(C)C)n1`, the figure is 31.2 µg/mL (≈ 112 µM).
With `CCOc1ccc(NC(=O)CN2C(=O)NC(CCc3ccccc3)C2=O)cc1OCC` (stereo not drawn) the figure was 8.8 µg/mL (≈ 20.7 µM); with `CC(C)c1ccc(C(=O)OCC(=O)c2c(N)n(C)c(=O)n(C)c2=O)cc1`, 4.4 µg/mL (≈ 12.2 µM).
For `NC1=NC(=O)/C(=C/c2ccccc2OCC(=O)Nc2ccc(F)cc2)S1`, the solubility (kinetic) was 3.8 µg/mL (≈ 10.2 µM).
As for `CC(=O)Nc1ccc(S(=O)(=O)NCCC(=O)Nc2cc(C)ccn2)cc1`, the figure is over 56.5 µg/mL; as for `Cn1ccs/c1=N\C(=O)Nc1cccc(C(F)(F)F)c1`, over 45.2 µg/mL.
As for `C/C(=C\c1ccccc1F)C(=O)c1c(C)cc(C)[nH]c1=O`, the figure is over 42.8 µg/mL; as for `CCOC(=O)c1cccc(NC(=O)c2ccc3c(c2)OCO3)c1`, 2.7 µg/mL (≈ 8.62 µM).
With `COc1cc(C(=O)Nc2ccc(C)cc2)c2ccccc2n1` the figure was under 0.3 µg/mL; with `O=C(COC(=O)/C=C/c1cccc(F)c1)NC1CCCCCC1`, 5.6 µg/mL (≈ 17.5 µM).
The compound `COc1cc(C)c(NC(=O)Cc2ccsc2)cc1OC` showed a kinetic solubility of 42.4 µg/mL (≈ 146 µM).
As for `O=C(C1CCC1)N1CCN(c2ccccc2)CC1`, the figure is 35.6 µg/mL (≈ 146 µM); as for `CCOc1ccc(NC(=O)CNC(=O)c2ccco2)cc1`, over 43.2 µg/mL.
As for `Cc1ccccc1S(=O)(=O)Nc1ncnc2sccc12`, the figure is over 45.8 µg/mL.
In turn, `Cc1cccc(C)c1NC(=O)CCCCCC1NC(=O)NC1C` (stereo not drawn) displayed a kinetic solubility of over 47.6 µg/mL.
Compound `CC1=NN(C(=O)c2ccccc2C)C(O)(c2ccc(Cl)cc2)C1` (stereo not drawn) had a kinetic solubility of over 49.3 µg/mL.
Compound `CCN(Cc1ccccc1)C(=O)COC(=O)c1cc(S(=O)(=O)Nc2ccccc2OC)ccc1O` showed a kinetic solubility of 6 µg/mL (≈ 12 µM).
As for `COc1ncnc(OC)c1S(=O)(=O)NCc1ccccc1`, the figure is over 46.4 µg/mL.
As for `O=C(CNC(=O)c1ccccc1F)OCc1nc2ccccc2s1`, the figure is 48.6 µg/mL (≈ 141 µM).
With `Cc1cccc(OC(C)C(=O)Nc2nccs2)c1` (stereo not drawn) the figure was 37.9 µg/mL (≈ 144 µM).
In turn, `CC(CN1CCOCC1)OC(=O)Cc1ccccc1.Cl` (stereo not drawn) returned a solubility (kinetic) of 33.3 µg/mL.
Regarding `Cc1ccc(C(=O)Nc2ccc(S(=O)(=O)N3CCCC3)cc2)s1`, the kinetic solubility came out at 7.2 µg/mL (≈ 20.5 µM).
Consider `O=C(COC(=O)c1ccc(Br)c(S(=O)(=O)N2CCOCC2)c1)NC1CC1`, for which the solubility (kinetic) was over 67.1 µg/mL.
As for `Cc1cc(C)c(C)c(S(=O)(=O)NCC(=O)Nc2ccc(F)cc2)c1C`, the figure is 3.9 µg/mL (≈ 10.7 µM); as for `CCCS(=O)(=O)N1CCN=C1SCc1cccc(F)c1`, 39.6 µg/mL (≈ 125 µM); as for `N#Cc1c(N)n(-c2ccc(O)cc2)c2nc3ccccc3nc12`, 1.2 µg/mL (≈ 3.98 µM).
The compound `CCSc1nsc(NC(=O)Nc2ccccc2OC)n1` yielded a kinetic solubility of 2.6 µg/mL (≈ 8.38 µM).
As for `CCOC(=O)C(=CNc1ccc(Oc2cncc(Cl)c2)nc1)C(=O)OCC`, the figure is 5 µg/mL (≈ 12.8 µM).

Source of the values: PubChem BioAssay AID1996.
